{
  "source": "patent US20140378551A1",
  "about": "“Composition for the Prophylactic Treatment of Neuropathic Pain” (Universite d'Auvergne, priority 2011, published 2014)",
  "key": {"[1]": {"tested_on": "neuropathic pain induced by spinal nerve ligation among rats", "assay": "Paw pressure test (Randall & Selitto): mechanical hyperalgesia, spinal nerve ligation model", "format": "in vivo, rat", "protocol": "(§1) The effects of the prolonged and preventive administration of memantine were first of all studied among rats. The model used was that of the ligation of the spinal nerve L5 (herein after called SNL for spinal nerve ligation) among rats. The emergence of neuropathic pain is assessed according to the following criteria: • the behavior of the rat following the spinal nerve ligation (SNL), • cognition, and • molecular events, including the expression of phosphorylated tyrosine 1472 of the NR2B sub-unit of the NMDA receptor at the spinal level.\n(§2) The study was based on the comparison of the two main groups of animals. The first group was a control group. The rats of the control group, designated as “Sham” in the graphs, underwent no operation. They are used to assess the role of the injected substances on the individual, without there being any emergence of neuropathic pain.\n(§3) Two sub-groups were set up in this group: • one sub-group treated with the vehicle which is a saline solution of NaCl 0.9% by mass, in a dose of 1 mL/kg/rat/day, by intraperitoneal injection; and • one sub-group treated with memantine in a dose of 20 mg/kg/rat/day, by intraperitoneal injection.\n(§4) The second group of animals comprises rats having to undergo to spinal nerve ligation and therefore likely to develop neuropathic pain. This group is referred to in the graphs by the term SNL. As in the control group, this group is divided into two sub-groups: • one sub-group treated with the vehicle, which is a saline solution of NaCl 0.9% by mass, in a dose of 1 mL/kg/rat/day, by intraperitoneal injection; and • one sub-group treated by memantine in a dose of 20 mg/kg/rat/day, by intraperitoneal injection. […]\n(§5) 7. Seven to 14 days after the surgery, the neuropathic, hyperalgesic or allodynic rats are selected according to their response to nociceptive and non-nociceptive stimulation assessed through appropriate tests (see paragraph 6.1.2). […]"}, "[2]": {"tested_on": "neuropathic pain induced by spinal nerve ligation among rats", "assay": "Von Frey test: mechanical allodynia, spinal nerve ligation model", "format": "in vivo", "details": "20 mg/kg/rat/day i.p.", "protocol": "as §1, §2, §3, §4, §5"}, "[3]": {"tested_on": "post-operative neuropathic pain", "assay": "Phase 2 clinical trial, pain self-evaluation after mastectomy and axillary dissection", "format": "in vivo, human", "details": "follow-up after operation, self-evaluation scale 1 to 10; preliminary results", "protocol": "A phase 2 clinical trial on the development and evaluation of neuropathic pain was conducted among patients having to undergo mastectomy and axillary dissection. The patients were separated randomly into two groups: • a control group who were to receive lactose as a placebo; and • a group treated by memantine hydrochloride (EBIXA®).\nThe clinical trial protocol is described in detail in the form referenced NTC014536314 (http://clinicaltrials.gov). […]\nThe patient's pain was evaluated by asking them to assess their own pain on a numerical scale ranging from 1 to 10 (10 being the maximum stage of pain) for the two weeks following the operation and for three months following the operation. […] The development of neuropathic pain is also evaluated by the DN4 questionnaire on neuropathic pain, and the Questionnaire sur la Douleur de Saint-Antoine (QDSA) or “Saint-Antoine pain questionnaire”. […]\nFIG. 7 is a graph showing the preliminary results obtained on the first […] having taken part in these clinical trials (six patients had received the placebo composition and seven patients had received the memantine-hydrochloride-based composition), their pain being evaluated by the method of self-evaluation on a scale of 1 to 10. […]"}, "[4]": {"tested_on": "neuropathic pain in patients", "details": "cited from earlier work"}},
  "data": [
    {"molecule": "CC12CC3CC(C)(C1)CC(N)(C3)C2", "note": "[memantine, 1-amino-3,5-dimethyl-adamantane]", "values": [
      {"measurement": "vocalization threshold (mechanical hyperalgesia)", "setting": "[1]; SNL rats, 20 mg/kg/rat/day i.p., four days before and three days after the operation", "value": "vocalization threshold very close to that of non-operated rats"},
      {"measurement": "vocalization threshold (mechanical hyperalgesia)", "setting": "[1]; SNL rats, 20 mg/kg/rat/day i.p., post-operative injection only (three days after operation)", "value": "not enough to restore a normal vocalization threshold"},
      {"measurement": "vocalization threshold (mechanical hyperalgesia)", "setting": "[1]; non-operated (Sham) rats, 20 mg/kg/rat/day intraperitoneal, versus vehicle", "value": "no influence whatsoever on the behavior of non-operated rats"},
      {"measurement": "threshold of response (mechanical allodynia)", "setting": "[2]; SNL rats, 4 days preceding and 3 days following the operation", "value": "restores a threshold of response almost identical to that of non-operated rats"},
      {"measurement": "threshold of response (mechanical allodynia)", "setting": "[2]; SNL rats, solely post-operative injection", "value": "not enough to restore the normal behavior of the rats"},
      {"measurement": "threshold of response (mechanical allodynia)", "setting": "[2]; non-operated (Sham) rats, versus vehicle", "value": "no influence whatsoever on the behavior of non-operated rats"},
      {"measurement": "level of pain versus placebo", "setting": "[3]", "value": "patients having received the placebo have a higher level of pain than patients having received memantine"},
      {"measurement": "relief to patients with amputated limb or nerve lesions following surgery", "setting": "[4]; Nikolajsen et al., 2000", "value": "inefficacious"},
      {"measurement": "effect in patients who had undergone amputation", "setting": "[4]; administered just after the operation (Buvanendran et al, 2008)", "value": "beneficial effect"}
    ]}
  ]
}
